Results: PubChem BioAssay (NCI)
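Five compound concentrations were applied to cells in 96-well plates for 48 hours; endpoints were derived by simple linear interpolation of the resulting dose-response curve. TGI: concentration producing complete growth inhibition.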

Columns and labels:
Experiment in all cases: NCI-60 cell line screen, 48 h
PC-3 prostate = test system: PC-3 prostate
BT-549 breast = test system: BT-549 breast
NCI-H522 lung = test system: NCI-H522 lung
HCT-15 colon = test system: HCT-15 colon
EKVX NSCLC = test system: EKVX NSCLC
MOLT-4 leukemia = test system: MOLT-4 leukemia
MDA-N = test system: MDA-N
HS 578T breast = test system: HS 578T breast
DU-145 prostate = test system: DU-145 prostate
NCI-H226 lung = test system: NCI-H226 lung
SR leukemia = test system: SR leukemia
A549 NSCLC = test system: A549 NSCLC
UACC-257 melanoma = test system: UACC-257 melanoma

SMILES	TGI (PC-3 prostate) [µM]	TGI (BT-549 breast) [µM]	TGI (NCI-H522 lung) [µM]	TGI (HCT-15 colon) [µM]	TGI (EKVX NSCLC) [µM]	TGI (MOLT-4 leukemia) [µM]	TGI (MDA-N) [µM]	TGI (HS 578T breast) [µM]	TGI (DU-145 prostate) [µM]	TGI (NCI-H226 lung) [µM]	TGI (SR leukemia) [µM]	TGI (A549 NSCLC) [µM]	TGI (UACC-257 melanoma) [µM]
O=C(O)c1ccc(Nc2nc3cc(C(F)(F)F)ccc3nc2-c2ccccc2)cc1	40.6	> 100	32.8	30.6	92	> 100	> 100	49.4	95.5	69.6	> 100	40.3	> 100
O=C(CN(c1ccc(S(=O)(=O)O)cc1)c1ccc(S(=O)(=O)O)cc1)Nn1cnc2ccc(S(=O)(=O)N(c3ccc(S(=O)(=O)O)cc3)c3ccc(S(=O)(=O)O)cc3)cc2c1=O	> 100	> 100	> 100	> 100	> 100	> 100	> 100	> 100	> 100	> 100	> 100	> 100	> 100
COC(=O)[C@@H]1Cc2cc(O)c(O)cc2C2(CCN(C)CC2)O1	> 10	> 10	> 10	> 10	> 10	> 10	> 10	> 10	> 10	> 10	> 10	> 10	> 10
Nc1ccccc1N=Nc1c(S(=O)(=O)O)cc2cc(S(=O)(=O)O)cc(O)c2c1O	> 100	> 100	> 100	> 100	> 100	> 100	> 100	> 100	> 100	> 100	> 100	> 100	> 100
CCN(CC)C(=S)SS(=O)(=O)c1ccccc1[N+](=O)[O-]	> 100	> 80.6	2.83	> 100	> 100	26	> 66.6	> 88.7	> 66.5	> 93.8	> 42.6	> 100	> 60.6
O=C(CCOS(=O)(=O)CF)N1CCN(C(=O)CCOS(=O)(=O)CF)CC1	> 100	> 100	> 90.1	> 100	> 100	36.3	> 100	> 100	> 100	> 100	> 100	> 100	> 100
Oc1ccc(-c2cn3cc(C(F)(F)F)ccc3n2)cc1	> 100	> 100	88	> 100	> 100	> 100	> 100	> 100	> 100	> 100	> 100	> 100	> 100
CC(=O)Oc1c(C)c2c(c3ccccc13)OC(C)(C)C2	47.2	39.4	36.7	30.6	34	37.1	24.9	53.9	31	40.7	52.8	33.9	24.6
Cc1cc2c(cc1C)C(=O)/C(=N/Nc1ccc(F)cc1)CCO2	> 100	> 100	> 100	> 100	> 100	> 100	> 100	> 100	> 100	> 100	> 100	> 100	> 100
O=C1C(Cl)=C(N2CCN(c3ccccn3)CC2)C(=O)c2ncccc21	7.52	4.63	2.83	3.12	24.4	4.09	3.51	5.95	24.1	18.2	3.2	19.5	3.24
C=CCn1cnc2c(=O)[nH]c(Nc3ccccc3)nc21	> 100	> 100	> 100	> 100	> 100	> 100	> 100	> 100	> 100	> 100	> 100	> 100	> 100
CC(=O)Nc1ccc2cc3[nH]c4cc(NC(C)=O)ccc4c3nc2c1	> 100	> 100	> 100	> 100	> 100	77.3	> 100	> 100	> 100	> 100	> 100	> 100	> 100
C=C1CC(COc2ccc3c(C)cc(=O)oc3c2)(c2ccccc2)OC1=O (configuration not stated)	5.78	3.18	3.37	3.62	25.2	6.77	5.78	> 27	6.68	15.7	> 31.6	25	3.9
O=[N+]([O-])c1nccn1CCCNCCCn1ccnc1[N+](=O)[O-]	> 100	> 100	> 100	> 100	> 100	> 100	> 100	> 100	> 100	> 100	> 100	> 100	> 100
CN(C)c1ccc(C(=NN)c2ccc(N(C)C)cc2)cc1	> 23.5	> 100	18.7	> 40.9	> 100	–	24.4	> 100	> 35	> 62.4	> 100	> 100	0.813
O=C1C(Cl)C(c2cc3cc(Br)ccc3nc2Cl)N1c1c(Cl)cccc1Cl (configuration not stated)	> 25	> 25	11.3	> 25	22.2	11.4	> 25	> 25	> 25	> 25	10.7	> 25	> 25
N#CCCN(CCC#N)c1ccc(C(N=Nc2ccc(Cl)cc2)=Nc2ccc(F)cc2)cc1	> 100	> 100	> 100	> 100	> 100	> 100	> 100	> 100	> 100	> 100	> 100	> 100	> 100
c1ccc(C2=Nc3cccc4cccc(c34)N2)cc1	68	> 85.7	24.8	> 96.1	> 100	> 54.8	> 100	> 100	> 100	> 100	52.9	> 100	> 100
CC[C@@H](/C=C\CCC1(C[C@@H](N)CCC=C(C)C)OCCO1)O[Si](C(C)C)(C(C)C)C(C)C	29.6	35	39.7	35.4	29.3	37.1	30.7	52.4	40.3	34.2	14.5	33.1	36.6
CCN(CC)COC(=S)S	> 100	> 100	> 94.7	> 100	> 100	69	> 100	> 100	> 100	> 100	25.9	> 100	> 76.3
COC1(CC[C@H](C)COC2OC(CO)C(O)C(O)C2O)O[C@H]2C[C@H]3[C@@H]4CC=C5C[C@@H](OC6OC(CO)C(O)C(OC7OC(CO)C(O)C(O)C7O)C6OC6OC(C)C(O)C(O)C6O)CC[C@]5(C)[C@H]4CC[C@]3(C)[C@H]2[C@@H]1C (some centres not stated)	16.6	22.5	7.41	7.43	> 51	> 27.3	27	24.6	4.29	18.6	> 100	7.27	22
CN(C)C(=O)C1CCN(Cc2c[nH]c3ccccc23)CC1	> 100	> 100	> 100	> 100	> 100	> 100	> 100	> 100	> 100	> 100	> 100	> 100	> 100
Cc1c(-c2ccccc2)c(C#N)c2nnn(-c3cccc(Cl)c3)c(=O)n12	75.9	> 100	> 100	> 100	> 100	–	> 100	> 100	> 100	> 100	> 100	–	> 100
COc1ccc(CNC(=O)[C@H](Cc2ccc(O)cn2)NC(C)=O)cc1	> 100	> 100	> 100	> 100	> 100	> 100	> 100	> 100	> 100	> 100	> 100	> 100	> 100
N#Cc1c(-c2ccccc2)c(C#N)c(=O)n(C2OC(CO)C(O)C(O)C2O)c1S (configuration not stated)	> 100	> 100	> 100	> 100	–	> 100	> 100	> 100	> 100	> 100	> 100	> 100	> 100
O=C(NNC(=S)NCc1ccccc1)C12CC3CC(CC(C3)C1)C2	> 100	> 100	> 100	> 100	–	> 100	> 100	> 100	> 100	> 100	> 100	–	> 100
